Columns and labels:
ORL-1 receptor = ORL-1 receptor (Homo sapiens (Human), UniProt P41146); assay: ORL-1 receptor radioligand binding assay ([3H]-nociceptin); details: binding affinity, [3H]-nociceptin displacement
Experimental: ORL-1 Receptor Binding Assay Procedure: Membranes from recombinant HEK-293 cells expressing the human opioid receptor-like receptor (ORL-1) (Perkin Elmer, Shelton, Conn.) were prepared by lysing cells in ice-cold hypotonic buffer (2.5 mM MgCl2, 50 mM HEPES, pH 7.4) (10 ml/10 cm dish) followed by homogenization with a tissue grinder/Teflon pestle. Membranes were collected by centrifugation at 30,000×g for […] at 4° C. and pellets resuspended in hypotonic buffer to a final concentration of 1-3 mg/ml. Protein concentrations were determined using the BioRad protein assay reagent with bovine serum albumen as standard. Aliquots of the ORL-1 receptor membranes were stored at −80° C.
Radioligand binding assays (screening and dose-displacement) used 0.1 nM [^3H]-nociceptin (Perkin Elmer, Shelton, Conn.; 87.7 Ci/mmole) with 12 μg membrane protein in a final volume of 500 μl binding buffer (10 mM MgCl2, 1 mM EDTA, 5% DMSO, 50 mM HEPES, pH 7.4). Non-specific binding was determined in the presence of […] unlabeled nociceptin (American Peptide Company). All reactions were performed in 96-deep well polypropylene plates for 1 h at room temperature. Binding reactions were terminated by rapid filtration onto 96-well Unifilter GF/C filter plates (Perkin Elmer, Shelton, Conn.) presoaked in 0.5% polyethylenimine (Sigma). Harvesting was performed using a 96-well tissue harvester (Perkin Elmer, Shelton, Conn.) followed by three filtration washes with 500 μl ice-cold binding buffer. Filter plates were subsequently dried at 50° C. for 2-3 hours. Fifty μl/well scintillation cocktail (Perkin Elmer, Shelton, Conn.) was added and plates were counted in a Packard Top-Count for 1 min/well. The data from screening and dose-displacement experiments were analyzed using Microsoft Excel and the curve fitting functions in GraphPad PRISM™, v. 3.0 or higher, respectively, or an in-house function for one-site competition curve-fitting.

μ-opioid receptor = μ-opioid receptor (Homo sapiens (Human), UniProt P35372); assay: μ-opioid receptor radioligand dose-displacement binding assay ([3H]-diprenorphine); details: binding affinity, [3H]-diprenorphine displacement; read-out: Ki (nM) Opioid Receptor μ
κ-opioid receptor = κ-opioid receptor (Homo sapiens (Human), UniProt P41145); assay: κ-opioid receptor radioligand dose-displacement binding assay ([3H]-U69,593); details: binding affinity, [3H]-U69,593 displacement
Summary of the method: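 Competition binding with 0.4 nM [3H]-U69,593 and 15 μg membrane protein from HEK 293 cells expressing recombinant human κ receptor, in 50 mM Tris pH 7.4 with 5% DMSO, 1 h at about 25 °C. Nonspecific binding defined with 10 μM naloxone or U69,593; bound ligand collected by GF/C filtration and scintillation counting.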

δ-opioid receptor = δ-opioid receptor (Homo sapiens (Human), UniProt P41143); assay: δ-opioid receptor [35S]GTPγS functional assay, HEK-293 or CHO cells; format: biochemical
Chain of δ-opioid receptor (P41143 whole entry, looked up): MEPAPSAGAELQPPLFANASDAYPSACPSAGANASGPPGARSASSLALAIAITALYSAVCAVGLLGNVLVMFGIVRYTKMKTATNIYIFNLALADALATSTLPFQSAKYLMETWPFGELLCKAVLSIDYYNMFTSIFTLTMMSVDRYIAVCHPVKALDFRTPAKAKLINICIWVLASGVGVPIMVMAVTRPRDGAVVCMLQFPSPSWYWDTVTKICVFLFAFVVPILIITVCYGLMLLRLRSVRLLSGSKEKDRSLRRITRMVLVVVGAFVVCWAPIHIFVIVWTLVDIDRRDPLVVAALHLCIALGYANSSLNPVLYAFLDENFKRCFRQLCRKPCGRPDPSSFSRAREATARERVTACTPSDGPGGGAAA
Experimental: δ-Opioid Receptor Functional Assay Procedures: Functional [^35S]GTPγS binding assays were conducted as follows. δ-Opioid receptor membrane solution was prepared by sequentially adding final concentrations of 0.026 μg/μl δ membrane protein (Perkin Elmer, Shelton, Conn.), 10 μg/mL saponin, 3 μM GDP and 0.20 nM [^35S]GTPγS to binding buffer (100 mM NaCl, 10 mM MgCl2, 20 mM HEPES, pH 7.4) on ice. The prepared membrane solution (190 μl/well) was transferred to 96-shallow well polypropylene plates containing 10 μl of 20× concentrated stock solutions of agonist prepared in DMSO. Plates were incubated for 30 min at a temperature of about 25° C. with shaking. Reactions were terminated by rapid filtration onto 96-well Unifilter GF/B filter plates (Perkin Elmer, Shelton, Conn.) using a 96-well tissue harvester (Packard) and followed by three filtration washes with 200 μl ice-cold binding buffer (10 mM NaH2PO4, 10 mM Na2HPO4, pH 7.4). Filter plates were subsequently dried at 50° C. for 1-2 hours. Fifty μl/well scintillation cocktail (Perkin Elmer, Shelton, Conn.) was added and plates were counted in a Packard Top-count for 1 min/well.
δ-Opioid Receptor Functional Data: δ GTP EC50 is the concentration of a compound providing 50% of the maximal response for the compound at a δ receptor.
δ GTP Emax (%) is the maximal effect elicited by a compound relative to the effect elicited by met-enkephalin.
In TABLE 2, activity response of certain Compounds of the Invention to the μ-, δ- and κ-opioid receptors was determined as described above for functional assays using HEK-293 or CHO cells.

NC(=O)c1cc2c([nH]c1=O)C[C@]13CCN(CC4CC4)[C@H](Cc4ccc(O)cc41)[C@]3(O)C2 [Compound 5, (6R,6aS,12aR)-15-(cyclopropylmethyl)-2,6a-dihydroxy-10-oxo-6,6a,7,10,11,12-hexahydro-5H-6,12a-(epiminoethano)naphtho[2,1-g]quinoline-9-carboxamide]
Ki (ORL-1 receptor): 1330 ± 310 nM
Ki (μ-opioid receptor): 6.55 ± 2.06 nM
Ki (κ-opioid receptor): 0.58 ± 0.15 nM
EC50 (δ-opioid receptor): > 20000 nM

O=C(O)c1cc2c([nH]c1=O)C[C@]13CCN(CC4CC4)[C@H](Cc4ccc(O)cc41)[C@]3(O)C2 [Compound 9, (6R,6aS,12aR)-15-(cyclopropylmethyl)-2,6a-dihydroxy-10-oxo-6,6a,7,10,11,12-hexahydro-5H-6,12a-(epiminoethano)naphtho[2,1-g]quinoline-9-carboxylic acid]
Ki (ORL-1 receptor): 2320 ± 320 nM
Ki (μ-opioid receptor): 3.11 ± 0.9 nM
Ki (κ-opioid receptor): 1.52 ± 0.18 nM
EC50 (δ-opioid receptor): > 20000 nM

O=C(O)c1cc2c([nH]c1=O)C[C@]13CCN(CC4CC4)[C@H](Cc4ccc(O)cc41)[C@@H]3C2 [Compound 11, (6R,6aR,12aS)-15-(cyclopropylmethyl)-2-hydroxy-10-oxo-6,6a,7,10,11,12-hexahydro-5H-6,12a-(epiminoethano)naphtho[2,1-g]quinoline-9-carboxylic acid]
Ki (ORL-1 receptor): 4.91 ± 0.82 nM
Ki (μ-opioid receptor): 0.52 ± 0.12 nM
Ki (κ-opioid receptor): 18.5 ± 7.73 nM
EC50 (δ-opioid receptor): 3.53 ± 1.5 nM
Emax (δ-opioid receptor; relative to met-enkephalin, HEK-293 or CHO cells): 36 ± 3.21%

— patent US8980906B2, “Pyridonemorphinan analogs and biological activity on opioid receptors” (Purdue Pharma L.P., priority 2012, dated 2015)
